Laboratory results from patent US20030153549A1, “Clavams as protease inhibitors” (priority 2000, published 2003).

Key:
[1] = target: porcine pancreatic elastase PPE (Sus scrofa, UniProt P00772); test: Enzyme assay: hydrolysis of Suc-AlaAlaProAla-pNa by PPE, measured at 405 nm; type: biochemical; details: for IC50: substrate 100 μM, 25° C., pH 7.5, 10% DMSO; for inhibitory potency with pre-incubation of the clavam with PPE: with pre-incubation versus without
Description: Enzyme assays. Enzyme assays were performed using a Shimadzu 1601PC spectrophotometer equipped with a thermostatted multi-cell transport system. The hydrolysis of the para-nitroanilide substrate (Suc-AlaAlaProAla-pNa, 100 μM) was measured at 405 nm and at a constant temperature of 25° C. in 0.1 M Tris-HCl buffer (pH 7.5). At least quadruplicate measurements of the initial rate were determined at five inhibitor concentrations and data analysed using standard kinetic equations programmed into Excel (Microsoft Corp.) and Grafit (Erithacus Inc.). To aid solubility the clavam inhibitors were dissolved in DMSO to give a final concentration in the assay of 10% (v/v).
It is likely that the lack of inhibition observed from clavulanic acid (1) is due to the presence of a negative charge on the carboxylic acid on C-3 which prevents binding within the PPE active site.

PPE [2] = target: T1, PPE (Sus scrofa, UniProt P00772); test: Electrospray ionisation mass spectrometry of PPE incubated with one equivalent of inhibitor (adduct formation); type: binding, porcine; details: time points 3 minutes to 5 hours, unbuffered
Description: Electrospray ionisation mass spectrometry. Electrospray ionisation mass spectra were recorded on a Micromass BioQ II-ZS triple quadruple mass spectrometer equipped with an electrospray interface. PPE at 80 pmol μl^−1 was incubated with one equivalent of inhibitor. Samples (5 μl) were removed at fixed time points, diluted with water:acetonitrile (1:1 v/v) containing 0.2% (v/v) formic acid to give a protein concentration of 5 pmol μl^−1 and analysed immediately. The resulting electrospray mass spectra were calibrated relative to native porcine pancreatic elastase PPE and processed using the MaxEnt algorithm and the spectra reported as centroided data.

PPE [3] = target: T1, PPE; test: 1H NMR analysis of incubation of PPE with clavulanic acid derivative (ester hydrolysis); type: biochemical, porcine; details: D2O/CD3CN, 303K
Description: NMR experimental procedures. ^1H NMR analyses were performed at 500 MHz on a Bruker AMX500 instrument. Samples (450-500 μl) of PPE (ca. 3 mg) and clavulanic acid derivative (ca 3 mg) were dissolved in 10% (v/v) CD3CN in D2O. The temperature was regulated at 303K and the spectra were referenced to internal MeCN at 2.05 ppm.
Their identity was subsequently confirmed by doping experiments.

Sequence of porcine pancreatic elastase PPE (P00772 27-266): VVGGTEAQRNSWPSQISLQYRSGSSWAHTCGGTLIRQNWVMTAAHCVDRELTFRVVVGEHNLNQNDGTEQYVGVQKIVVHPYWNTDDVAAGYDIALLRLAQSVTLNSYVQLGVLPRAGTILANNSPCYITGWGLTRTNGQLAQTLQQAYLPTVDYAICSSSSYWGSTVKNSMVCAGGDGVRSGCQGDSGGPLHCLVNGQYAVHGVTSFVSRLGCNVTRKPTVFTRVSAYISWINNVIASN
T1 sequence (P00772 27-266): as above

IC50 ([1]; standard assay conditions) [µM]	inhibitory potency with pre-incubation of the clavam with PPE [1]	inhibition ([1]; pre-incubation of clavam with PPE 15 minutes) [%]	inhibition ([1]; pre-incubation of clavam with PPE 30 minutes) [%]	inhibition ([1]; pre-incubation of clavam with PPE 60 minutes) [%]	SMILES	mass increments / adducts relative to native PPE (ESIMS) (PPE [2])	inhibition of PPE ([1]; standard assay conditions)	PPE-catalysed hydrolysis of the ester side chain (1H NMR) (PPE [3])
187	increased significantly				O=C(OCc1ccc([N+](=O)[O-])cc1)[C@H]1/C(=C/CO)O[C@@H]2CC(=O)N21 [compound 10]	formation of the 70 and 88 Da adducts appeared to be slightly faster		
					O=C(O)[C@H]1/C(=C/CO)O[C@@H]2CC(=O)N21 [compound 1, Clavulanic acid, reference compound]	no mass increments	did not inhibit PPE	
184	increased significantly	43	87	93	O=C(OCc1ccccc1)[C@H]1/C(=C/CO)O[C@@H]2CC(=O)N21 [compound 9]	formation of an initial acyl-enzyme complex		just visible after a one hour incubation period
